From the NIST ThermoML archive (doi:10.1021/je5008394)
Numbers after ± are expanded uncertainties.

Settings: Liquid, dynamic light scattering

Compound `COC(C)(C)C` [2-methoxy-2-methylpropane] has a thermal diffusivity (303.15 K, 101.33 kPa) of 6.4e-08 ± 1.3e-09 m2/s, a thermal diffusivity (303.15 K, 1500 kPa) of 6.66e-08 ± 1.3e-09 m2/s and a thermal diffusivity (303.15 K, 2500 kPa) of 6.7e-08 ± 1.4e-09 m2/s. It also gave a thermal diffusivity (303.15 K, 4000 kPa) of 6.75e-08 ± 1.4e-09 m2/s, a thermal diffusivity (303.15 K, 5500 kPa) of 6.79e-08 ± 1.4e-09 m2/s and a thermal diffusivity (303.15 K, 7000 kPa) of 6.81e-08 ± 1.4e-09 m2/s. The thermal diffusivity (303.15 K, 8500 kPa) was 6.83e-08 ± 1.4e-09 m2/s, the thermal diffusivity (303.15 K, 10000 kPa) was 6.85e-08 ± 1.4e-09 m2/s and the thermal diffusivity (313.15 K, 101.33 kPa) was 6.17e-08 ± 1.2e-09 m2/s. It also gave a thermal diffusivity (318.15 K, 1500 kPa) of 6.29e-08 ± 1.3e-09 m2/s, a thermal diffusivity (318.15 K, 2500 kPa) of 6.32e-08 ± 1.3e-09 m2/s and a thermal diffusivity (318.15 K, 4000 kPa) of 6.37e-08 ± 1.3e-09 m2/s. For the same compound, the thermal diffusivity (318.15 K, 5500 kPa) was 6.4e-08 ± 1.3e-09 m2/s, the thermal diffusivity (318.15 K, 7000 kPa) was 6.44e-08 ± 1.3e-09 m2/s and the thermal diffusivity (318.15 K, 8500 kPa) was 6.47e-08 ± 1.3e-09 m2/s. The thermal diffusivity (318.15 K, 10000 kPa) was 6.49e-08 ± 1.3e-09 m2/s, the thermal diffusivity (323.15 K, 101.33 kPa) was 5.87e-08 ± 1.2e-09 m2/s and the thermal diffusivity (333.15 K, 101.33 kPa) was 5.7e-08 ± 1.2e-09 m2/s. It also gave a thermal diffusivity (333.15 K, 1500 kPa) of 5.94e-08 ± 1.2e-09 m2/s, a thermal diffusivity (333.15 K, 2500 kPa) of 5.97e-08 ± 1.2e-09 m2/s and a thermal diffusivity (333.15 K, 4000 kPa) of 6e-08 ± 1.2e-09 m2/s. For the same compound, the thermal diffusivity (333.15 K, 5500 kPa) was 6.05e-08 ± 1.2e-09 m2/s, the thermal diffusivity (333.15 K, 7000 kPa) was 6.09e-08 ± 1.2e-09 m2/s and the thermal diffusivity (333.15 K, 8500 kPa) was 6.15e-08 ± 1.2e-09 m2/s. The thermal diffusivity (333.15 K, 10000 kPa) was 6.21e-08 ± 1.3e-09 m2/s, the thermal diffusivity (343.15 K, 101.33 kPa) was 5.42e-08 ± 1.1e-09 m2/s and the thermal diffusivity (348.15 K, 1500 kPa) was 5.62e-08 ± 1.1e-09 m2/s. For the same compound, the thermal diffusivity (348.15 K, 2500 kPa) was 5.63e-08 ± 1.1e-09 m2/s, the thermal diffusivity (348.15 K, 4000 kPa) was 5.68e-08 ± 1.1e-09 m2/s and the thermal diffusivity (348.15 K, 5500 kPa) was 5.72e-08 ± 1.2e-09 m2/s. For the same compound, the thermal diffusivity (348.15 K, 7000 kPa) was 5.78e-08 ± 1.2e-09 m2/s, the thermal diffusivity (348.15 K, 8500 kPa) was 5.85e-08 ± 1.2e-09 m2/s and the thermal diffusivity (348.15 K, 10000 kPa) was 5.92e-08 ± 1.2e-09 m2/s. It also gave a thermal diffusivity (353.15 K, 101.33 kPa) of 5.26e-08 ± 1.1e-09 m2/s, a thermal diffusivity (363.15 K, 101.33 kPa) of 5.05e-08 ± 1e-09 m2/s and a thermal diffusivity (363.15 K, 1500 kPa) of 5.33e-08 ± 1.1e-09 m2/s. For the same compound, the thermal diffusivity (363.15 K, 2500 kPa) was 5.34e-08 ± 1.1e-09 m2/s, the thermal diffusivity (363.15 K, 4000 kPa) was 5.38e-08 ± 1.1e-09 m2/s and the thermal diffusivity (363.15 K, 5500 kPa) was 5.43e-08 ± 1.1e-09 m2/s. It also gave a thermal diffusivity (363.15 K, 7000 kPa) of 5.5e-08 ± 1.1e-09 m2/s, a thermal diffusivity (363.15 K, 8500 kPa) of 5.57e-08 ± 1.1e-09 m2/s and a thermal diffusivity (363.15 K, 10000 kPa) of 5.68e-08 ± 1.1e-09 m2/s. It also gave a thermal diffusivity (373.15 K, 101.33 kPa) of 4.83e-08 ± 1e-09 m2/s, a thermal diffusivity (378.15 K, 1500 kPa) of 5.06e-08 ± 1e-09 m2/s and a thermal diffusivity (378.15 K, 2500 kPa) of 5.07e-08 ± 1e-09 m2/s. The thermal diffusivity (378.15 K, 4000 kPa) was 5.1e-08 ± 1e-09 m2/s, the thermal diffusivity (378.15 K, 5500 kPa) was 5.15e-08 ± 1e-09 m2/s and the thermal diffusivity (378.15 K, 7000 kPa) was 5.23e-08 ± 1.1e-09 m2/s. The thermal diffusivity (378.15 K, 8500 kPa) was 5.32e-08 ± 1.1e-09 m2/s, the thermal diffusivity (378.15 K, 10000 kPa) was 5.44e-08 ± 1.1e-09 m2/s and the thermal diffusivity (383.15 K, 101.33 kPa) was 4.72e-08 ± 1e-09 m2/s. The thermal diffusivity (393.15 K, 101.33 kPa) was 4.64e-08 ± 9e-10 m2/s, the thermal diffusivity (393.15 K, 1500 kPa) was 4.83e-08 ± 1e-09 m2/s and the thermal diffusivity (393.15 K, 2500 kPa) was 4.83e-08 ± 1e-09 m2/s. The thermal diffusivity (393.15 K, 4000 kPa) was 4.86e-08 ± 1e-09 m2/s, the thermal diffusivity (393.15 K, 5500 kPa) was 4.92e-08 ± 1e-09 m2/s and the thermal diffusivity (393.15 K, 7000 kPa) was 4.99e-08 ± 1e-09 m2/s. For the same compound, the thermal diffusivity (393.15 K, 8500 kPa) was 5.09e-08 ± 1e-09 m2/s, the thermal diffusivity (393.15 K, 10000 kPa) was 5.21e-08 ± 1.1e-09 m2/s and the thermal diffusivity (403.15 K, 101.33 kPa) was 4.55e-08 ± 9e-10 m2/s. For the same compound, the thermal diffusivity (403.15 K, 1500 kPa) was 4.68e-08 ± 9e-10 m2/s, the thermal diffusivity (403.15 K, 2500 kPa) was 4.69e-08 ± 9e-10 m2/s and the thermal diffusivity (403.15 K, 4000 kPa) was 4.71e-08 ± 1e-09 m2/s. The thermal diffusivity (403.15 K, 5500 kPa) was 4.77e-08 ± 1e-09 m2/s, the thermal diffusivity (403.15 K, 7000 kPa) was 4.85e-08 ± 1e-09 m2/s and the thermal diffusivity (403.15 K, 8500 kPa) was 4.95e-08 ± 1e-09 m2/s. It also gave a thermal diffusivity (403.15 K, 10000 kPa) of 5.08e-08 ± 1e-09 m2/s, a thermal diffusivity (413.1 K, 1500 kPa) of 4.54e-08 ± 9e-10 m2/s and a thermal diffusivity (413.1 K, 2500 kPa) of 4.55e-08 ± 9e-10 m2/s. For the same compound, the thermal diffusivity (413.1 K, 4000 kPa) was 4.58e-08 ± 9e-10 m2/s, the thermal diffusivity (413.1 K, 5500 kPa) was 4.64e-08 ± 9e-10 m2/s and the thermal diffusivity (413.1 K, 7000 kPa) was 4.72e-08 ± 1e-09 m2/s. The thermal diffusivity (413.1 K, 8500 kPa) was 4.82e-08 ± 1e-09 m2/s, the thermal diffusivity (413.1 K, 10000 kPa) was 4.95e-08 ± 1e-09 m2/s and the thermal diffusivity (413.15 K, 101.33 kPa) was 4.48e-08 ± 9e-10 m2/s. For the same compound, the thermal diffusivity (423.15 K, 101.33 kPa) was 4.38e-08 ± 9e-10 m2/s, the thermal diffusivity (423.15 K, 1500 kPa) was 4.42e-08 ± 9e-10 m2/s and the thermal diffusivity (423.15 K, 2500 kPa) was 4.43e-08 ± 9e-10 m2/s. The thermal diffusivity (423.15 K, 4000 kPa) was 4.46e-08 ± 9e-10 m2/s, the thermal diffusivity (423.15 K, 5500 kPa) was 4.51e-08 ± 9e-10 m2/s and the thermal diffusivity (423.15 K, 7000 kPa) was 4.59e-08 ± 9e-10 m2/s. For the same compound, the thermal diffusivity (423.15 K, 8500 kPa) was 4.7e-08 ± 1e-09 m2/s, the thermal diffusivity (423.15 K, 10000 kPa) was 4.83e-08 ± 1e-09 m2/s and the thermal diffusivity (433.15 K, 101.33 kPa) was 4.31e-08 ± 9e-10 m2/s. For the same compound, the thermal diffusivity (433.15 K, 1500 kPa) was 4.32e-08 ± 9e-10 m2/s, the thermal diffusivity (433.15 K, 2500 kPa) was 4.32e-08 ± 9e-10 m2/s and the thermal diffusivity (433.15 K, 4000 kPa) was 4.36e-08 ± 9e-10 m2/s.
